For series [1], the target named is T1, P2X7 receptor (IL-1β release from THP-1 cells) (Homo sapiens, UniProt Q99572).
T1 construct: host or cells: THP-1 cells differentiated with LPS and IFN-γ
T1 sequence (Q99572 1-595): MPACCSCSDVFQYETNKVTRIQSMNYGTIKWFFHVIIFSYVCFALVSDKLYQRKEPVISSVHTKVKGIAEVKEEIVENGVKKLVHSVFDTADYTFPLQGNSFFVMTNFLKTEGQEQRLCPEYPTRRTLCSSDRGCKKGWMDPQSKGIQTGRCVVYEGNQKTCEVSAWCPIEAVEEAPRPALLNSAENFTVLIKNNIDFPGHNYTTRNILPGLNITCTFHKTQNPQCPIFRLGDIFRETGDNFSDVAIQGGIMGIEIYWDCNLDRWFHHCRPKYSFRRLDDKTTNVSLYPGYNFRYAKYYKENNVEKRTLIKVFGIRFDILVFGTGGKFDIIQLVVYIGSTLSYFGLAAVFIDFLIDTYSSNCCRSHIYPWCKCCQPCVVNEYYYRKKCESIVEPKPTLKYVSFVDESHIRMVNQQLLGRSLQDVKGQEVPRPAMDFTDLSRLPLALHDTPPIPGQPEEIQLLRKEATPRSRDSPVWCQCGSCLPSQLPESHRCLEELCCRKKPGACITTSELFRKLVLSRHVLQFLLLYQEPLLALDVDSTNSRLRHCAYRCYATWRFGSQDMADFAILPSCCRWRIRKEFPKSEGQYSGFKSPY
The series is described as follows: IL-1β release assay in differentiated THP-1 cells stimulated with BzATP (Example 9). The series is classed as cell-based. Particulars: for inhibition at 0.3 µM: 0.3 μM concentration, BzATP 250 uM, read-out: IL-1β % Inhib. @ 0.3 or 0.1 μM; for IC50: released IL-1β as in Example 9, four parameter logistic fit. The method, then: The cells are then pretreated for 30 minutes with the compound of interest at the appropriate concentration in RPMI media containing 100 IU/mL penicillin, 100 ug/mL streptomycin. […] 30 uL of cell supernatant is then collected and IL-1β levels determined via ELISA (R&D systems Cat. #HSLB50) according to manufacturer's recommendations using the Tecan Safire plate reader. Background adjusted IL-1β levels of drug treated and non-treated cells are used to calculate the percent inhibition.
The compounds set forth in Table 1 were tested for activity in a cellular model as described herein. […] Measurements were made and IC50 values, presented in Table 2, below, were determined by fitting the data to a four parameter logistic equation using GraphPad Prism software (GraphPad Software, Inc). The equation may be expressed by the following formula:
Y=Bottom+(Top−Bottom)/(1+10̂((Log EC50−X)*HillSlope))
Where X is the logarithm of concentration, Y is the response and Y starts at Bottom and goes to Top with a sigmoid shape.

A short description of series [2]: Half-life in human liver microsomes (HLM). The series is classed as in vitro ADME. The note with it: human liver microsomes (HLM, HL101); human liver microsomes 0.78 mg/mL, 1 μM compound, NADPH, pH 7.4, 37° C. For orientation: Microsomes from liver hold many membrane-bound enzymes, among them those of drug oxidation.
Description: Test compounds (1 μM) are incubated with 3.3 mM MgCl2 and 0.78 mg/mL HLM (HL101) in 100 mM potassium phosphate buffer (pH 7.4) at 37° C. on the 96-deep well plate. The reaction mixture is split into two groups, a non-P450 and a P450 group. NADPH is only added to the reaction mixture of the P450 group. An aliquot of samples of P450 group is collected at 0, 10, 30, and 60 min time point, where 0 min time point indicated the time when NADPH is added into the reaction mixture of P450 group. […] Collected aliquots are extracted with acetonitrile solution containing an internal standard. […] The compound concentration in supernatant is measured by LC/MS/MS system.
The half-life value is obtained by plotting the natural logarithm of the peak area ratio of compounds/internal standard versus time. The slope of the line of best fit through the points yields the rate of metabolism (k). This is converted to a half-life value using following equations:
Series [3] is described as follows: Pharmacokinetic evaluation following intravenous and oral administration in rats. The series is classed as in vivo. The note with it: rat, plasma; male Sprague-Dawley rats; PO 1 to 5 mg/kg vs IV, AUCinf dose-normalized; mean % F. How it is done:
Male Sprague-Dawley rats are acclimatized for at least 24 hours prior to experiment initiation. During the acclimation period, all animals receive food and water ad libitum. However, food but not water is removed from the animals' cages at least 12 hours before initiation of the experiment. During the first 3 hours of experimentation, the animals receive only water ad libitum. At least three animals each are tested for intravenous and oral dosage. For intravenous formulation, compounds were dissolved (0.25 to 1 mg/mL) in a mixture of 3% dimethyl sulfoxide, 40% PEG 400 and the rest percentage of 40% Captisol in water (w/v). The animals are weighed before dosing. The determined body weight is used to calculate the dose volume for each animal.
Dose volume (mL/kg)=1 mg/kg/formulation concentration (mg/mL)
In instances where the formulation concentrations were less than 0.5 mg/mL, the dosing volume is about 2 mL/kg.
For oral formulation, compounds of this invention are suspended (0.5 to 0.75 mg/mL) in a mixture of 5% of 10% Tween 80 in water (v/v) and 95% of 0.5% methyl cellulose in water (w/v). PO rats are typically dosed through oral gavage following the same dose volume formula as IV to achieve a dose level of 1 to 5 mg/kg. For IV dosing, blood samples are collected (using a pre-heparinized syringe) via the jugular vein catheter at 2, 5, 15, 30, 60, 120, 180, 300, 480, and 1440 minutes post dosing. For PO dosing, blood samples are collected (using a pre-heparinized syringe) via the jugular vein catheter before dosing and at 5, 15, 30, 60, 120, 180, 300, 480, and 1440 minutes post dosing. About 250 uL of blood is obtained at each time point from the animal. Equal volumes of 0.9% normal saline are replaced to prevent dehydration. The whole blood samples are maintained on ice until centrifugation. Blood samples are then centrifuged at 14,000 rpm for 10 minutes at 4° C. and the upper plasma layer transferred into a clean vial and stored at −80° C. The resulting plasma samples are then analyzed by liquid chromatography-tandem mass spectrometry. Following the measurement of plasma samples and dosing solutions, plasma concentration-time curve is plotted. Plasma exposure is calculated as the area under the concentration-time curve extrapolated to time infinite (AUCinf). The AUCinf is averaged and the oral bioavailability (% F) for individual animal is calculated as:
AUCinf(PO)/AUCinf(IV), normalized to their respective dose levels.
The % F is reported as the mean % F of all animals dosed orally with the compound of the invention at the specified level (Table 4).

For orientation: IC50 means the concentration that inhibits the measured activity by half. As a reminder, the half-life is the time needed for the level to fall by half in the phase considered. A higher half-life goes with slow decline. What is called bioavailability is dose-corrected exposure relative to a reference, in per cent. The low end stands for little systemic uptake, the high end for much systemic uptake.

Regarding `O=C(CC12CC3CC(CC(C3)C1)C2)Nc1cccc2c(=O)n(CC3CCNCC3)ccc12` [Compound 501], in series [1], the inhibition at 0.3 µM is over 76% and the IC50 worked out at 6.17 nM. The compound also showed a half-life at 1 μM in series [2] of 22.8 min. Moreover, the bioavailability in series [3] was 0 to 25%.
Turning to `O=C(CC12CC3CC(CC(C3)C1)C2)Nc1cccc2c(=O)n(C(CO)CO)ccc12` [Compound 507], in series [1], the inhibition at 0.3 µM is over 76% and the IC50 is 0.198 nM. The compound also showed a half-life at 1 μM in series [2] of 34.8 min. In series [3], this compound showed a bioavailability of 0 to 25%.
On to `O=C(CC12CC3CC(CC(C3)C1)C2)Nc1cccc2c1CCN(C(CO)CO)C2=O` [Compound 508], for which, in series [1], the inhibition at 0.3 µM is over 76% and the 50% inhibitory concentration (IC50) is 0.779 nM. In series [2], this compound gave a half-life at 1 μM of 49.8 min. Besides, the bioavailability in series [3] fell in the range of 0 to 25%.
In the case of `O=C(CC12CC3CC(CC(C3)C1)C2)Nc1cccc2c(=O)n(CCO)ccc12` [Compound 511], in series [1], the inhibition at 0.3 µM is over 76% and the IC50 was determined as 1.34 nM. In series [2], the half-life at 1 μM is 27 min.
For `O=C(CC12CC3CC(CC(C3)C1)C2)Nc1cccc2c1CCN(CC1CCNCC1)C2=O` [Compound 512] the same measures were over 76%, 7.62 nM and 44.4 min.
The matching figures for `O=C(CC12CC3CC(CC(C3)C1)C2)Nc1cccc2c(=O)n(C(CO)Cc3c[nH]cn3)ccc12` (centres unmarked) [Compound 515]: over 76%, 1.3 nM and 91.2 min.
As to `CC(CO)n1ccc2c(NC(=O)CC34CC5CC(CC(C5)C3)C4)cccc2c1=O` (centres unmarked) [Compound 517, 2-Adamantan-1-yl-N-[2-(2-hydroxy-1-methyl-ethyl)-1-oxo-1,2-dihydro-isoquinolin-5-yl]-acetamide], in series [1], the inhibition at 0.3 µM is over 76% and the 50% inhibitory concentration (IC50) came to 0.33 nM. The same compound showed a half-life at 1 μM in series [2] of 26.4 min.
The matching figures for `CC12CC3CC(C)(C1)CC(CC(=O)Nc1cccc4c(=O)n(C(CO)CO)ccc14)(C3)C2` [Compound 519]: over 76%, 0.11 nM and 42.6 min.
On to `C[C@H](CO)n1ccc2c(NC(=O)CC34CC5CC(CC(C5)C3)C4)cccc2c1=O` [Compound 522], for which, in series [1], the inhibition at 0.3 µM was over 76% and the IC50 was determined as 1.81 nM. The compound further gave a half-life at 1 μM in series [2] of 28.8 min.
For the compound `CC1(C)CC(CC(=O)Nc2cccc3c(=O)n([C@@H](C(N)=O)c4ccccc4)ccc23)CC(C)(C)C1` [Compound 593, (R)-2-{1-Oxo-5-[2-(3,3,5,5-tetramethylcyclohexyl)-acetylamino]-1H-isoquinolin-2-yl}-2-phenyl-acetamide], in series [1], the inhibition at 0.3 µM is over 76% and the IC50 was 4.09 nM.
As to `CC(C)[C@H](C(=O)NC1CC1)n1ccc2c(NC(=O)CC34CC5CC(CC(C5)C3)C4)cccc2c1=O` [Compound 594], in series [1], the inhibition at 0.3 µM fell in the range of 26 to 50% and the IC50 is 303 nM.
The matching figures for `CC(C)[C@H](C(=O)NC1CC1)n1ccc2c(NC(=O)CC3CCCCCC3)cccc2c1=O` [Compound 595, (R)-2-[5-(2-Cycloheptyl-acetylamino)-1-oxo-1H-isoquinolin-2-yl]-N-cyclopropyl-3-methyl-butyramide]: over 76% and 20.7 nM.
For `CC(C)C[C@H](CO)n1ccc2c(NC(=O)CC3(O)CCCCCC3)cccc2c1=O` [Compound 596] the same measures were over 76% and 5.59 nM.
For `CC(C)[C@H](C(N)=O)n1ccc2c(NC(=O)CC3CCCCCC3)cccc2c1=O` [Compound 597, (R)-2-[5-(2-Cycloheptyl-acetylamino)-1-oxo-1H-isoquinolin-2-yl]-3-methyl-butyramide] the same measures were over 76% and 2.38 nM.
With `C[C@H](C(=O)NC1CC1)n1ccc2c(NC(=O)CC34CC5CC(CC(C5)C3)C4)cccc2c1=O` [Compound 598, (R)-2-[5-(2-Adamantan-1-yl-acetyl-amino)-1-oxo-1H-isoquinolin-2-yl]-N-cyclopropyl-propionamide], in series [1], the inhibition at 0.3 µM is over 76% and the IC50 came to 0.698 nM.
`CC(C)[C@H](C(=O)O)n1ccc2c(NC(=O)CC34CC5CC(CC(C5)C3)C4)cccc2c1=O` [Compound 603]: in series [1], the inhibition at 0.3 µM is over 76% and the IC50 worked out at 22 nM.
The matching figures for `C[C@@H](CO)n1ccc2c(NC(=O)CC3CCCCCC3)cccc2c1=O` [Compound 605, 2-Cycloheptyl-N-[2-((S)-2-hydroxy-1-methyl-ethyl)-1-oxo-1,2-dihydro-isoquinolin-5-yl]-acetamide]: over 76% and 66.5 nM.
For `C[C@H](C(=O)O)n1ccc2c(NC(=O)CC3CCCCCC3)cccc2c1=O` [Compound 607, (R)-2-[5-(2-Cycloheptyl-acetylamino)-1-oxo-1H-isoquinolin-2-yl]-propionic acid] the same measures were over 76% and 92.1 nM.
The matching figures for `C[C@H](C(N)=O)n1ccc2c(NC(=O)[C@H](C)C3CCCCCC3)cccc2c1=O` [Compound 608]: over 76% and 70.8 nM.
Turning to `C[C@H](C(=O)Nc1cccc2c(=O)n([C@H](C)C(N)=O)ccc12)C1CCCCCC1` [Compound 609], in series [1], the inhibition at 0.3 µM is over 76% and the concentration for half-maximal inhibition (IC50) amounted to 6.16 nM.
For `CC(C)[C@H](C(=O)O)n1ccc2c(NC(=O)CC3CCCCCC3)cccc2c1=O` [Compound 610] the same measures were over 76% and 44.7 nM.
For `CC(=O)NCCn1ccc2c(NC(=O)CC3CCCCCC3)cccc2c1=O` [Compound 611, N-[2-(2-Acetylamino-ethyl)-1-oxo-1,2-dihydro-isoquinolin-5-yl]-2-cycloheptyl-acetamide], the inhibition at 0.3 µM in series [1] lay within 51 to 75%.
For the compound `CC(C)(CO)n1ccc2c(NC(=O)CC34CC5CC(CC(C5)C3)C4)cccc2c1=O` [Compound 613, 2-Adamantan-1-yl-N-[2-(2-hydroxy-1,1-dimethyl-ethyl)-1-oxo-1,2-dihydro-isoquinolin-5-yl]acetamide], in series [1], the inhibition at 0.3 µM was over 76% and the IC50 stood at 3.78 nM.
Regarding `CC(C)(CO)n1ccc2c(NC(=O)CC3CCCCCC3)cccc2c1=O` [Compound 614], in series [1], the inhibition at 0.3 µM is over 76% and the IC50 turned out to be 91.4 nM.

Source of the values: patent publication US20100184802A1, “Bicycloheteroaryl Compounds as P2X7 Modulators and Uses Thereof” (priority 2006, published 2010).
